In article PMC8165744, “Identification of an Alternative Glycyrrhizin Metabolite Causing Liquorice-Induced Pseudohyperaldosteronism and the Development of ELISA System to Detect the Predictive Biomarker” (Frontiers in Pharmacology, 2021):
pIC50: −log10 of the molar value. Read-outs that look alike come from different tables or passages of the source.

Assays:
[1] = molecular target: T1, rat type-2 11β-hydroxysteroid dehydrogenase (11β-HSD2) (Rattus norvegicus, UniProt P50233); experiment: in vitro 11β-HSD2 activity using rat kidney microsomes; format: biochemical; conditions: rat kidney microsome fraction, 37°C, 30 min
T1 construct: from tissue; host or cells: rat kidney microsome fraction
T1 sequence (P50233 1-400): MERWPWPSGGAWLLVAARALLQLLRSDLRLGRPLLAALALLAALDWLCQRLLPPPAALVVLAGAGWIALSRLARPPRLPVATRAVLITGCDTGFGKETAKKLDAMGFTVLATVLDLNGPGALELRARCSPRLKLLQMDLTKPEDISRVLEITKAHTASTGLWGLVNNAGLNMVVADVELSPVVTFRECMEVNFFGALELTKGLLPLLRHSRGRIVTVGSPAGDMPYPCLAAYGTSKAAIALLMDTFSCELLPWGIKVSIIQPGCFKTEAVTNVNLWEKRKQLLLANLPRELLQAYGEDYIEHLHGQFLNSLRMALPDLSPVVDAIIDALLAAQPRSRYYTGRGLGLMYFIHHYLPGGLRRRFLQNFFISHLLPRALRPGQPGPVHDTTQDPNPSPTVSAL
Experimental: Determination of in vitro 11β-HSD2 Activity Using Rat Kidney Microsomes
Then, the amount of [^3H] cortisol was measured. […] Kidneys were collected from normal Sprague-Dawley (SD) rats and slices were incubated with plasma samples of female EHBRs at 37°C or 4°C for 2 h, and then homogenized. […] HEK293 cells transfected with OAT1 or OAT3 were incubated with 1:2 diluted plasma samples of male EHBRs at 37°C for 15 min. Then, concentrations of 4 in cells were measured using LC-MS/MS.

[2] = binding of compound 4 to albumin in pooled EHBR plasma (ultrafiltration); format: in vitro ADME, Eisai hyperbilirubinuria rats (EHBRs); conditions: female, Eisai hyperbilirubinuria rat (EHBR), rat, 200 mg/kg; pooled plasma of EHBRs 12 h after oral GA
Experimental: (§1) Binding of Compound 4 to Albumin
(§2) We measured the binding ratios of 4 to albumin in pooled plasma of female EHBRs using the same protocol used in our previous study ([Ishiuchi et al., 2019]).
(§3) The pooled plasma samples collected from EHBRs 12 h after oral treatment with GA were loaded into ultracentrifuge filters with a 1 × 10^4 molecular weight cut-off and concentrated by centrifugation. The concentrations of 4 in the pooled plasma and the filtrate were 77 µM and undetectable, respectively. Based on the detection limits (3.2 nM) in the LC-MS/MS analysis, the albumin-binding ratios of 4 in the plasma was calculated to be more than 99.9%.

albumin = molecular target: T2, albumin (Rattus norvegicus, UniProt P02770); experiment: as above; format: in vitro ADME, Eisai hyperbilirubinuria rats (EHBRs)
T2 construct: from tissue; host or cells: pooled plasma of EHBRs orally treated with GA
Experimental: as §1, §2, §3

rat kidney slices = experiment: uptake into rat kidney slices; format: in vitro ADME, Sprague-Dawley (SD) rats; conditions: SD rat kidney slices incubated with pooled EHBR plasma for 2 h; p < 0.01
Text: Uptake of Compound 4 by Rat Kidney Slices and Cells Expressing OAT1 and 3
For the uptake study of 4 into rat kidney slices, we used the samples obtained in our previous study ([Ishiuchi et al., 2019]). For the uptake study of 4 into the cells transiently expressing OAT1 and OAT3, we used the same protocol as in our previous study ([Makino et al., 2012]). cDNAs encoding human OAT1 and OAT3 inserted into pGH19 were generously supplied by Prof. Mitsuru Sugawara (Hokkaido University, Sapporo, Japan), and then subcloned into a pCI-neo mammalian expression vector (Promega, Madison, WI, United States). We used the same pooled plasma of male EHBRs orally treated with GA for 12 h used in our previous study ([Ishiuchi et al., 2019]).
FIGURE 2 Inhibitory effects of compound 4 on type-2 11β-hydroxysteroid dehydrogenase (11β-HSD2) using rat kidney microsome (A), and the uptake of 4 into rat kidney slices (B) or into HEK293 cells transfected with organic anion transporter (OAT) 1 (C) or OAT3 (D). […] Then, the amount of [^3H] cortisol was measured. […] Concentrations of 4 in kidney slice homogenates were measured using liquid chromatography-tandem mass spectrometry (LC-MS/MS). **p < 0.01 vs 4°C group using Student’s t-test (C) Male EHBRs were orally treated with GA (200 mg/kg) and their plasma samples were collected […] after treatment. […] Then, concentrations of 4 in cells were measured using LC-MS/MS. […]

[3] = pharmacokinetics of GA metabolites in EHBRs orally treated with GA; format: in vivo, Eisai hyperbilirubinuria rats (EHBRs); conditions: Eisai hyperbilirubinuria rat (EHBR), plasma, oral GA 200 mg/kg, 24 h after treatment, read-out: concentration in plasma sample

T2 sequence (P02770 25-608): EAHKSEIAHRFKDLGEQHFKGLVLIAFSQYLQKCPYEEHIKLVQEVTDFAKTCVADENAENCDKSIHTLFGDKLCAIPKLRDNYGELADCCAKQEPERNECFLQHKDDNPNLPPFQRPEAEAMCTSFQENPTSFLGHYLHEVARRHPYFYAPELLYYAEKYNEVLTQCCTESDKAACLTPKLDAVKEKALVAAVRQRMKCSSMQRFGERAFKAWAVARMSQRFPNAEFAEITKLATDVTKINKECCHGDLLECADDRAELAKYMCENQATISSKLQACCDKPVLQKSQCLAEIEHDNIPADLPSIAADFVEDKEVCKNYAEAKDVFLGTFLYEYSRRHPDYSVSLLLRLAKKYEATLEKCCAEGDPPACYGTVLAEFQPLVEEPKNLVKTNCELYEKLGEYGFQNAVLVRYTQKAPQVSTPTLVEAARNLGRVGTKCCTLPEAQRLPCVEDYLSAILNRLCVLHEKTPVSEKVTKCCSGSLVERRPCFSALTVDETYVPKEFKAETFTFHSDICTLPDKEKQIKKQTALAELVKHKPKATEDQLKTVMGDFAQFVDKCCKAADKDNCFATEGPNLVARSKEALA

pIC50 [1]: 6.42
concentration at 12 h [2]: 77 µM
albumin-binding ratio in plasma (albumin; pooled EHBR plasma, 1 × 10^4 MW cut-off filter, calculated from detection limit 3.2 nM): more than 99.9%
concentration in filtrate (albumin; ultracentrifuge filtrate of pooled EHBR plasma): undetectable
uptake by kidney slices, 37°C vs 4°C (rat kidney slices): significantly higher at 37 °C
concentration at 24 h ([3]; female EHBRs): 115 µM
concentration at 24 h ([3]; male EHBRs): 189 µM
Compound: CC1(C)[C@@H](OS(=O)(=O)O)CC[C@]2(C)[C@H]3C(=O)C=C4[C@@H]5C[C@@](C)(C(=O)O[C@@H]6O[C@H](C(=O)O)[C@@H](O)[C@H](O)[C@H]6O)CC[C@]5(C)CC[C@@]4(C)[C@]3(C)CC[C@@H]12 [Compound 4, 18β-glycyrrhetyl-3-O-sulfate-30-O-glucuronide]
